Read-outs that look alike come from different tables or passages of the source. Square brackets hold non-standard residues; d marks the D form. Peptide text beside a SMILES is read from it.
Experiments:
[1] = amide bond, DMF
[2] = molecular target: dog platelets (Canis lupus familiaris, UniProt A0A8I3N5G5+A0A8I3PMU9); conditions: read-out: IC50 for the aggregation of dog platelets stimulated by ADP; agonist ADP; peptides added 3 min prior to the agonist; light transmittance 5 min after agonist
Method: Inhibition of Platelet Aggregation
Blood was collected (citrated to prevent coagulation) from, naive, adult mongrel dogs. Platelet rich plasma, PRP, was prepared by centrifugation at 150×g for 10 min at room temperature. Washed platelets were prepared by centrifuging PRP at 800×g for 10 min. The cell pellet thus obtained was washed twice in Tyrode's buffer (pH 6.5) without Ca^++ and resuspended in Tyrode's buffer (pH 7.4) containing 1.8 mM Ca^++ at […]. Peptides were added 3 min prior to the agonist in all assays of platelet aggregation. Final agonist concentrations were 0.1 unit/ml thrombin and […] (Sigma). Aggregation was monitored in a Chrono-Log Lumi-Aggregometer. Light transmittance 5 min after addition of the agonist was used to calculate percent aggregation according to the formula % aggregation=[(90-CR)[…](90-10)]×100, where CR is the chart reading, 90 is the baseline, and 10 is the PRP blank reading. IC50 's were determined by plotting [% inhibition of aggregation] vs. [concentration of peptide]. Peptides were assayed at […] and diluted sequentially by a factor of 2 to establish a suitable dose response curve.

[3] = the molecule shown is the open-chain precursor, 20-membered ring, BOP/DIEA, resin, with chain assembly

Sequence of dog platelets (A0A8I3N5G5 1-1047): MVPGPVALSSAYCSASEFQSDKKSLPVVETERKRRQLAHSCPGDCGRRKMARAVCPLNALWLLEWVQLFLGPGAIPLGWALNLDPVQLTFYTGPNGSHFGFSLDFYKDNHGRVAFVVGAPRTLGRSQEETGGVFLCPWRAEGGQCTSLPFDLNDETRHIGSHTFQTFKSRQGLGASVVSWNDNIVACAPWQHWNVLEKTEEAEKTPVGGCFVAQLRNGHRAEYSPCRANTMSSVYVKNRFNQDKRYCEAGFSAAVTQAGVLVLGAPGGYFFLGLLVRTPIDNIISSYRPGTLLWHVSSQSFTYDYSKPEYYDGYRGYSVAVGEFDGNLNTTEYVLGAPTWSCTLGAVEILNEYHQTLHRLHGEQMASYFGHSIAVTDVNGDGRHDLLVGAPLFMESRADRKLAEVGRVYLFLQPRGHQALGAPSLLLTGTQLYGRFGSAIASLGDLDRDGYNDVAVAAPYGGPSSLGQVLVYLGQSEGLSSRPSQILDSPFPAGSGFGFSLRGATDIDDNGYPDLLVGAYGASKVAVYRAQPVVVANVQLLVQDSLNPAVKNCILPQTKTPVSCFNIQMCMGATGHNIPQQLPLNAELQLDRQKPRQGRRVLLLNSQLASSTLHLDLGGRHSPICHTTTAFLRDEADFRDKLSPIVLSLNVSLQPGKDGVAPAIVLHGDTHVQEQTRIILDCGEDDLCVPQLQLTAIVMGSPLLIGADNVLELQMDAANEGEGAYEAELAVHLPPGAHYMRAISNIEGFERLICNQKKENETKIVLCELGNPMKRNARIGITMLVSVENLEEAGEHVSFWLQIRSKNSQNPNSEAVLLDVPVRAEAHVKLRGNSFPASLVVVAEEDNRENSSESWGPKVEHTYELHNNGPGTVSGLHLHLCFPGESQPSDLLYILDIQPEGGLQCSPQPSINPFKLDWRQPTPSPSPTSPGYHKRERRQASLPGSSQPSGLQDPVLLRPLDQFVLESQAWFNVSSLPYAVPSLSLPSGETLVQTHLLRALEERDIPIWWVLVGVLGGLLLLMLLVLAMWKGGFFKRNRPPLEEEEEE
Sequence of dog platelets (A0A8I3PMU9 1-919): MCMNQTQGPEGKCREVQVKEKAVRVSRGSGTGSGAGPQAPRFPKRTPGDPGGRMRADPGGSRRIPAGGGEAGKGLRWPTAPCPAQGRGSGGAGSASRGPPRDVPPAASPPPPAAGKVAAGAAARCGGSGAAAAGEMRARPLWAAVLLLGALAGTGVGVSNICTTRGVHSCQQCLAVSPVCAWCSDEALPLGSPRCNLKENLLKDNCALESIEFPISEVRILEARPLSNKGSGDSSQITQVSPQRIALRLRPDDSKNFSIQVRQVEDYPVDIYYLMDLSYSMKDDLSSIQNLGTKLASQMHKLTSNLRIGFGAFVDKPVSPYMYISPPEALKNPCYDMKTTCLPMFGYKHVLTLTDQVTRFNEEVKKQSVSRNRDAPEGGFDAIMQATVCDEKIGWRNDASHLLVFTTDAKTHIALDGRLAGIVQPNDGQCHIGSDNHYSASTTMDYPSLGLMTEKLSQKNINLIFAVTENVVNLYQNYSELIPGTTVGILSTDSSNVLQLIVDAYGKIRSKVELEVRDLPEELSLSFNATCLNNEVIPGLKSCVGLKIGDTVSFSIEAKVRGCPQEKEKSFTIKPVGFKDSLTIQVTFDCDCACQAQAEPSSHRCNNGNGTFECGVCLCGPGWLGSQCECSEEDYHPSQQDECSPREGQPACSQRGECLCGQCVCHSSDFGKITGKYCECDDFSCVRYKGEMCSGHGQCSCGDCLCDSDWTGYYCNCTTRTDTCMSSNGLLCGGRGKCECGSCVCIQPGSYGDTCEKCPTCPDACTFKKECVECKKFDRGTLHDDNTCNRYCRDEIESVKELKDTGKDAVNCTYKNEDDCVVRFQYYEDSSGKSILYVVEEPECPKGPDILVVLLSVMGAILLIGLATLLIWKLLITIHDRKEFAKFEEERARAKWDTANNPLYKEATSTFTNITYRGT

Question: For `COc1cc(C)c(S(=O)(=O)NC(=N)NCCC[C@@H]2NC(=O)[C@@H]3CCCN3C(=O)[C@@H](Cc3ccccc3)NC(=O)[C@H](CC(=O)OC(C)(C)C)NC(=O)CNC(=O)[C@H](CCCNC(=N)NS(=O)(=O)c3c(C)cc(OC)c(C)c3C)NC(=O)[C@@H]3CCCN3C(=O)[C@@H](Cc3ccccc3)NC(=O)[C@H](CC(=O)OC(C)(C)C)NC(=O)CNC2=O)c(C)c1C`, which ring closure, crude yield ([1]; from H-Asp(OtBu)-dPhe-Pro-Arg(Mtr)-Gly-Asp(OtBu)-dPhe-Pro-Arg(Mtr)-Gly-OH, 30-membered ring, PPA/NMM, 0.4 mM) is on record?
Answer: 100%

Question: For `COc1cc(C)c(S(=O)(=O)NC(=N)NCCC[C@@H]2NC(=O)[C@H](Cc3ccccc3)NC(=O)[C@H](CC(=O)OC(C)(C)C)NC(=O)CNC(=O)[C@H](CCCNC(=N)NS(=O)(=O)c3c(C)cc(OC)c(C)c3C)NC(=O)[C@H](Cc3ccccc3)NC(=O)[C@H](CC(=O)OC(C)(C)C)NC(=O)CNC2=O)c(C)c1C`, which ring closure, crude yield ([1]; from H-Asp(OtBu)-Phe-Arg(Mtr)-Gly-Asp(OtBu)-Phe-Arg(Mtr)-Gly-OH, 24-membered ring, PPA/NMM, 0.4 mM) is on record?
Answer: 100%

Question: Which ring closure, crude yield ([1]; from H-Asp(OtBu)-Phe-MeArg(Tos)-Gly-Asp(OtBu)-Phe-Arg(Mtr)-Gly-OH, 24-membered ring, PPA/NMM, 0.4 mM) does the source give for `COc1cc(C)c(S(=O)(=O)NC(=N)NCCC[C@@H]2NC(=O)[C@H](Cc3ccccc3)NC(=O)[C@H](CC(=O)OC(C)(C)C)NC(=O)CNC(=O)[C@H](CCCNC(=N)NS(=O)(=O)c3ccc(C)cc3)N(C)C(=O)[C@H](Cc3ccccc3)NC(=O)[C@H](CC(=O)OC(C)(C)C)NC(=O)CNC2=O)c(C)c1C` here?
Answer: 95%

Question: With `N=C(N)NCCC[C@@H]1NC(=O)[C@@H]2CCCN2C(=O)[C@@H](Cc2ccccc2)NC(=O)[C@H](CC(=O)O)NC(=O)CNC(=O)[C@H](CCCNC(=N)N)NC(=O)[C@@H]2CCCN2C(=O)[C@@H](Cc2ccccc2)NC(=O)[C@H](CC(=O)O)NC(=O)CNC1=O` [Example 22, cyclo-(1,10)-Pro-Arg-Gly-Asp-D-Phe-Pro-Arg-Gly-Asp-D-Phe] (cyclo(RGD[dF]PRGD[dF]P)) as the compound, how does the IC50 [2] read?
Answer: > 200 µM

Question: Which IC50 [2] does the source give for `N=C(N)NCCC[C@@H]1NC(=O)CNC(=O)[C@@H]2CCCN2C(=O)[C@H]2CCCN2C(=O)[C@H](CC(=O)O)NC(=O)CNC1=O` [Example 24, cyclo-(1,6)-Pro-Gly-Arg-Gly-Asp-D-Pro] (cyclo(RGD[dP]PG)) here?
Answer: > 200 µM

Question: For `N=C(N)NCCC[C@@H]1NC(=O)CNC(=O)[C@@H]2CCCN2C(=O)[C@H](CO)NC(=O)[C@H](CC(=O)O)NC(=O)CNC1=O` [Example 25, cyclo-(1,6)-Gly-Arg-Gly-Asp-Ser-Pro], which IC50 [2] is on record?
Answer: > 200 µM

Question: For `C[C@H]1NC(=O)[C@H](CO)NC(=O)[C@H](CC(=O)O)NC(=O)CNC(=O)[C@H](CCCNC(=N)N)NC1=O` [Example 28, cyclo-(1,5)-D-Ala-Arg-Gly-Asp-Ser] (cyclo(RGDS[dA])), which IC50 [2] is on record?
Answer: > 200 µM

Question: For `COc1cc(C)c(S(=O)(=O)NC(=N)NCCC[C@@H]2NC(=O)[C@@H]3CCCN3C(=O)[C@@H](Cc3ccccc3)NC(=O)CNC(=O)[C@H](CC(=O)OC(C)(C)C)NC(=O)CNC2=O)c(C)c1C` [cyclo(1,6)-Asp(O-t-Bu)-Gly-D-Phe-Arg(Tos)-Gly], which ring closure, crude yield ([1]; from H-Asp(OtBu)-Gly-dPhe-Pro-Arg(Mtr)-Gly-OH, 18-membered ring, PPA/NMM, 0.5 mM) is on record?
Answer: 84%

Question: For `COc1cc(C)c(S(=O)(=O)NC(=N)NCCC[C@@H]2NC(=O)[C@H](C)NC(=O)[C@@H](COCc3ccccc3)NC(=O)[C@H](CC(=O)OC(C)(C)C)NC(=O)CNC2=O)c(C)c1C` [cyclo-(1,5)-Ala-Arg(Mtr)-Gly-Asp(O-t-Bu)-D-Ser(Bzl)], which ring closure, crude yield ([1]; from H-Asp(OtBu)-dSer(Bzl)-Ala-Arg(Mtr)-Gly-OH, 15-membered ring, PPA/NMM, 0.4 mM) is on record?
Answer: 67%

Question: With `Cc1ccc(S(=O)(=O)NC(=N)NCCC[C@@H]2NC(=O)[C@@H](C)NC(=O)[C@H](COCc3ccccc3)NC(=O)[C@H](CC(=O)OCc3ccccc3)NC(=O)CNC2=O)cc1` [cyclo-(1,5)-D-Ala-Arg(Tos)-Gly-Asp(Bzl)-Ser(Bzl)] as the compound, how does the ring closure, crude yield ([1]; from H-Asp(Bzl)-Ser(Bzl)-dAla-Arg(Tos)-Gly-OH, 15-membered ring, PPA/NMM, 0.4 mM) read?
Answer: 67%

Question: With `COc1cc(C)c(S(=O)(=O)NC(=N)NCCC[C@@H]2NC(=O)CNC(=O)[C@@H]3CCCN3C(=O)[C@H](COCc3ccccc3)NC(=O)[C@H](CC(=O)OC(C)(C)C)NC(=O)CNC2=O)c(C)c1C` [cyclo-(1,6)-Gly-Arg-Gly-Asp-Ser-Pro] as the compound, how does the ring closure, crude yield ([1]; from H-Asp(OtBu)-Ser(Bzl)-Pro-Gly-Arg(Mtr)-Gly-OH, 18-membered ring, PPA/NMM, 0.4 mM) read?
Answer: 88%

Question: For `COc1cc(C)c(S(=O)(=O)NC(=N)NCCC[C@@H]2NC(=O)[C@@H]3CCCN3C(=O)CNC(=O)[C@H]3CCCN3C(=O)[C@H](CC(=O)OC(C)(C)C)NC(=O)CNC2=O)c(C)c1C` [cyclo-(1,6)-Gly-Pro-Arg-Gly-Asp-D-Pro], which ring closure, crude yield ([1]; from H-Asp(OtBu)-dPro-Gly-Pro-Arg(Mtr)-Gly-OH, 18-membered ring, PPA/NMM, 0.4 mM) is on record?
Answer: 42%

Question: With `Cc1ccc(S(=O)(=O)NC(=N)NCCC[C@@H]2NC(=O)[C@@H]3CCCN3C(=O)[C@H]3CCCN3C(=O)CNC(=O)[C@H](CC(=O)OC(C)(C)C)NC(=O)CNC2=O)cc1` [cyclo-(1,6)-Pro-Arg(Tos)-Gly-Asp(O-t-Bu)-Gly-D-Pro] as the compound, how does the ring closure, crude yield ([1]; from H-Asp(OtBu)-Gly-dPro-Pro-Arg(Tos)-Gly-OH, 18-membered ring, PPA/NMM, 0.57 mM) read?
Answer: 63%

Question: For `COc1cc(C)c(S(=O)(=O)NC(=N)NCCC[C@@H]2NC(=O)CNC(=O)[C@@H]3CCCN3C(=O)[C@H]3CCCN3C(=O)[C@H](CC(=O)OC(C)(C)C)NC(=O)CNC2=O)c(C)c1C` [cyclo-(1,6)-Pro-Gly-Arg(Mtr)-Gly-Asp(O-t-Bu)-D-Pro], which ring closure, crude yield ([1]; from H-Asp(OtBu)-dPro-Pro-Gly-Arg(Mtr)-Gly-OH, 18-membered ring, PPA/NMM, 0.37 mM) is on record?
Answer: 31%

Question: Which ring closure, crude yield [1, 3] does the source give for “H-Gly-Arg(Tos)-Gly-Asp(Bzl)-Ser(Bzl)-Glu-BHA-resin” here?
Answer: 94%

Question: With “H-Gly-MeArg(Tos)-Gly-Asp(Bzl)-Ser(Bzl)-Glu-BHA-resin” as the compound, how does the ring closure, crude yield [1, 3] read?
Answer: 100%

— US5643872A, “Cyclic anti-aggregatory peptides” (SmithKline Beecham Corporation, priority 1994, dated 1997)
